Assays:
[1] = tested on: TNF-a converting enzyme (TACE); assay: Western blot of TACE in APP-transfected N2a cells; assay type: cell-based, murine; conditions: in 3 to 4 hours following EGCG treatment, then rapidly cleaved through 8 hours
Procedure: Cell cultured supernatants were collected and cell lysates were prepared from these cultured cells.
Cultured cells and mouse brain were lysed in ice-cold lysis buffer described above, and an aliquot corresponding to 50 μg of total protein was electrophoretically separated using 16.5% Tris-tricine gels. Electrophoresed proteins were then transferred to PVDF membranes (Bio-Rad), washed in dH2O, and blocked for 1 hour at ambient temperature in Tris-buffered saline (TBS; Bio-Rad) containing 5% (w/v) for non-fat dry milk. After blocking, membranes were hybridized for 1 hour at ambient temperature with various antibodies, including against the C- (369), N-terminus of APP (22C11), the N-terminus of Aβ (6E10), and ADAM10 and TACE (Calbiochem). […] Densitometric analysis was done using the Fluor-S Multimager™ with Quantity One™ software (Bio-Rad). […] Antibodies used for Western blot included antibody 369 (1:1,000), anti-C-terminal APP antibody (1:500; Chemicon, Temecula, Calif.), BAM-10 (1:1,000; Sigma), 6E10 (1:1,000; Signet) or anti-Actin antibody (1:1,500; as an internal reference control; Roche). α-, β- and γ-secretase activities were quantified in cell lysates and mouse brain homogenates using available kits based on secretase-specific peptides conjugated to fluorogenic receptor molecules (R&D Systems, Minneapolis, Minn.).

Aβ generation = assay: Aβ ELISA, transgenic APPsw mouse-derived primary neuronal cells (Example 1); assay type: cell-based; conditions: 20 μM, FIG. 1B
Procedure: Aβ1-40 and 1-42 peptides were analyzed in the conditioned media from SweAPP N2a cells (FIGS. 1A, 1C, 1D) and transgenic APPsw mouse-derived primary neuronal cells (FIG. 1B) by ELISA (n=3 for each condition).
TAPI-1, β and γ-secretase inhibitors were obtained from Calbiochem (San Diego, Calif.). Green tea extract (75% polyphenols) was obtained from the Vitamin Shoppe™ (North Bergen, N.J.).
Cultured cells were lysed in ice-cold-lysis buffer (20 mM Tris, pH 7.5, 150 mM NaCl, 1 mM EDTA, 1 mM EGTA, 1% v/v Triton X-100, 2.5 mM sodium pyropgosphate, 1 mM β-glycerolphosphate, 1 mM Na3VO4, 1 μg/mL leupeptin, 1 mM PMSF) as previously described (Tan et al., 2002). Mouse brains were isolated under sterile conditions on ice and placed in ice-cold lysis buffer. […] Total Aβ1-42 species were detected by acid extraction of brain homogenates in 5 M guanidine buffer (ret), followed by a 1:10 dilution in lysis buffer. Soluble Aβ1-42 was directly detected in cultured cell lysates or brain homogenates prepared with lysis buffer described above by a 1:4 or 1:10 dilution, respectively. Aβ1-42 was quantified in these samples using the Aβ1-42 ELISA kit (BioSource, Camarillo, Calif.) in accordance with the manufacturer's instructions, except that standards included a 0.5 M guanidine buffer. […]

transgenic APPsw mice = assay: EGCG IP treatment of transgenic APPsw mice (brain Aβ, APP fragments, secretase activity, plaques); assay type: in vivo, mouse
Procedure: Soluble Aβ (FIG. 4B) and insoluble Aβ prepared with 5 M guanidine (FIG. 4C) were analyzed by ELISA. Data are represented as mean+/−SEM of Aβ (pg/mg protein). […] (FIG. 4D) α-, β- and γ-secretase cleavage activities were analyzed by secretase cleavage activity kits. Data are presented as mean+/−SEM of fluorescence units/mg protein. […] (FIG. 4E) Mouse brain paraffin sections stained with anti-human Aβ antibody (4G8); left control PBS-treated mice. […] Top, cingulated cortex (CC); Middle, hippocampus (H); Bottom, entorhinal cortex (EC). […] (FIG. 4F) illustrates bar graphs comparing the Aβ burden (%) for transgenic APPsw mice treated with two different compounds.
Cultured cells were lysed in ice-cold-lysis buffer (20 mM Tris, pH 7.5, 150 mM NaCl, 1 mM EDTA, 1 mM EGTA, 1% v/v Triton X-100, 2.5 mM sodium pyropgosphate, 1 mM β-glycerolphosphate, 1 mM Na3VO4, 1 μg/mL leupeptin, 1 mM PMSF) as previously described (Tan et al., 2002). Mouse brains were isolated under sterile conditions on ice and placed in ice-cold lysis buffer. Brains were then sonicated on ice for approximately 3 min, allowed to stand for 15 min at 4° C., and centrifuged at 15,000 rpm for 15 min. Total Aβ1-42 species were detected by acid extraction of brain homogenates in 5 M guanidine buffer (ret), followed by a 1:10 dilution in lysis buffer. Soluble Aβ1-42 was directly detected in cultured cell lysates or brain homogenates prepared with lysis buffer described above by a 1:4 or 1:10 dilution, respectively. Aβ1-42 was quantified in these samples using the Aβ1-42 ELISA kit (BioSource, Camarillo, Calif.) in accordance with the manufacturer's instructions, except that standards included a 0.5 M guanidine buffer.
Cultured cells and mouse brain were lysed in ice-cold lysis buffer described above, and an aliquot corresponding to 50 μg of total protein was electrophoretically separated using 16.5% Tris-tricine gels. Electrophoresed proteins were then transferred to PVDF membranes (Bio-Rad), washed in dH2O, and blocked for 1 hour at ambient temperature in Tris-buffered saline (TBS; Bio-Rad) containing 5% (w/v) for non-fat dry milk. After blocking, membranes were hybridized for 1 hour at ambient temperature with various antibodies, including against the C- (369), N-terminus of APP (22C11), the N-terminus of Aβ (6E10), and ADAM10 and TACE (Calbiochem). Membranes were then washed 3× for 5 min each in dH2O and incubated for 1 hour at ambient temperature with the appropriate HRP-conjugated secondary antibody (1:1,000, Pierce Biotechnology, Inc. Rockford, Ill.). All antibodies were diluted in TBS containing 5% (w/v) of non-fat dry milk. Blots were developed using the luminal reagent (Pierce Biotechnology). Densitometric analysis was done using the Fluor-S Multimager™ with Quantity One™ software (Bio-Rad). Immunoprecipitation was performed for detection of sAPP-α, sAPP-β and Aβ by incubating 200 μg of total protein of each sample with 6E10 (1:100; Signet) or 22C11 (1:100; Roche, Basel, Switzerland) overnight with gentle rocking at 4° C., and 10 μL of 50% protein A-Sepharose beads were then added to the sample (1:10; Sigma) prior to gentle rocking for an additional 4 hours at 4° C. Following washes with 1× cell lysis buffer, samples were subjected to Western blot as described above. Antibodies used for Western blot included antibody 369 (1:1,000), anti-C-terminal APP antibody (1:500; Chemicon, Temecula, Calif.), BAM-10 (1:1,000; Sigma), 6E10 (1:1,000; Signet) or anti-Actin antibody (1:1,500; as an internal reference control; Roche). α-, β- and γ-secretase activities were quantified in cell lysates and mouse brain homogenates using available kits based on secretase-specific peptides conjugated to fluorogenic receptor molecules (R&D Systems, Minneapolis, Minn.).

ADAM9 = assay: Western blot of ADAM9 in SweAPP N2a cells; assay type: cell-based, murine; conditions: EGCG treatment; data not shown
Procedure: Cultured cells were lysed in ice-cold lysis buffer described above, and an aliquot corresponding to 50 μg of total protein was electrophoretically separated using 16.5% Tris-tricine gels. Electrophoresed proteins were then transferred to PVDF membranes (Bio-Rad, Richmond, Calif.), washed in ddH2O, and blocked for 1 h at ambient temperature in Tris-buffered saline (TBS; Bio-Rad) containing 5% (w/v) non-fat dry milk. After blocking, membranes were hybridized for 1 h at ambient temperature with various primary antibodies. Membranes were then washed 3 times for 5 min each in ddH2O and incubated for 1 h at ambient temperature with the appropriate HRP-conjugated secondary antibody (1:1,000, Pierce Biotechnology, Inc. Rockford, Ill.). All antibodies were diluted in TBS containing 5% (w/v) of non-fat dry milk. Blots were developed using the luminol reagent (Pierce Biotechnology). Densitometric analysis was done using the Fluor-S MultiImager™ with Quantity One™ software (Bio-Rad). For examining sAPP-α, conditioned medium was collected following treatment according to a modified protocol from Chen and Fernandez (Chen et al., 2004). sAPP-α was extracted using 3K Nanosep centrifugal filters (Pall Life Sciences, Ann Arbor, Mich.) and protein concentrate was prepared for the aforementioned electrophoresis. […]

[2] = IP 20 mg/kg daily for 60 days, ELISA

O=C(O[C@@H]1Cc2c(O)cc(O)cc2O[C@@H]1c1cc(O)c(O)c(O)c1)c1cc(O)c(O)c(O)c1 [EGCG, (−)-epigallocatechin-3-gallate]
TACE expression [1]: significantly increased
reduction of Aβ1-42 generation over control (PBS) (Aβ generation): 40%
elevation of α-secretase cleavage activity in brain (transgenic APPsw mice; IP 20 mg/kg daily for 60 days): 28%
sAPP-α in brain versus PBS (transgenic APPsw mice; IP 20 mg/kg daily for 60 days): markedly increased
α-CTF in brain versus PBS (transgenic APPsw mice; IP 20 mg/kg daily for 60 days): markedly increased
reduction of soluble Aβ1-42 level in brain (transgenic APPsw mice; [2]): ~50%
reduction of total Aβ1-42 level in brain (transgenic APPsw mice; [2]): ~25%
reduction of 4G8 immunoreactive and thioflavin S positive Aβ deposits (transgenic APPsw mice; IP, 14 months of age, across the three brain regions examined): 32-36%
decrease of insoluble 5 M guanidine-prepared Aβ levels (transgenic APPsw mice; IP, ELISA, FIG. 4C): approximately 26%
activity of β-secretase cleavage in brain (transgenic APPsw mice; in vivo, FIG. 4d): not decreases
ADAM9 expression (ADAM9): no significant effects
